Assay results taken from ChEMBL document CHEMBL1201862, “PubChem BioAssay data set” (2004).
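48-hour exposure; five concentrations; linearly interpolated endpoints. At the GI50, growth is halved.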 Activity calls are given as the source filed them. Cut-off read from the data, not from the text of the source: active = GI50 up to about 1.1 µM and inactive = higher.

Assays:
Test in all cases: DTP human tumour cell line panel, 48 h
786-0 = test system: 786-0
A549 = test system: A549
ACHN = test system: ACHN
BT-549 = test system: BT-549
CAKI-1 = test system: CAKI-1
CCRF-CEM = test system: CCRF-CEM
COLO 205 = test system: COLO 205
DU-145 = test system: DU-145
EKVX = test system: EKVX
HCC 2998 = test system: HCC 2998
HCT-116 = test system: HCT-116
HCT-15 = test system: HCT-15
HL-60 = test system: HL-60
HOP-62 = test system: HOP-62
HOP-92 = test system: HOP-92
HT-29 = test system: HT-29
Hs-578T = test system: Hs-578T
IGROV-1 = test system: IGROV-1
K562 = test system: K562
KM12 = test system: KM12
LOX IMVI = test system: LOX IMVI
M14 = test system: M14
MCF7 = test system: MCF7
MDA-MB-231 = test system: MDA-MB-231
MDA-MB-435 = test system: MDA-MB-435
MDA-N = test system: MDA-N
MOLT-4 = test system: MOLT-4
Malme-3M = test system: Malme-3M
NCI-H226 = test system: NCI-H226
NCI-H23 = test system: NCI-H23
NCI-H460 = test system: NCI-H460
NCI-H522 = test system: NCI-H522
NCI/ADR-RES = test system: NCI/ADR-RES
OVCAR-3 = test system: OVCAR-3
OVCAR-4 = test system: OVCAR-4
OVCAR-5 = test system: OVCAR-5
OVCAR-8 = test system: OVCAR-8
PC-3 = test system: PC-3
RPMI-8226 = test system: RPMI-8226
RXF 393 = test system: RXF 393
SF-268 = test system: SF-268
SF-295 = test system: SF-295
SF-539 = test system: SF-539
SK-MEL-28 = test system: SK-MEL-28
SK-MEL-2 = test system: SK-MEL-2
SK-MEL-5 = test system: SK-MEL-5
SK-OV-3 = test system: SK-OV-3
SN12C = test system: SN12C
SNB-19 = test system: SNB-19
SNB-75 = test system: SNB-75
SR = test system: SR
SW-620 = test system: SW-620
T47D = test system: T47D
TK-10 = test system: TK-10
U-251 = test system: U-251
UACC-257 = test system: UACC-257
UACC-62 = test system: UACC-62
UO-31 = test system: UO-31
A498 = test system: A498

CCN(CC)CCCn1c(=O)c2ccccc2n2c3c(=O)n(C)c(=O)n(C)c3nc12
GI50 (786-0): 2.21 µM (inactive) | GI50 (A549): 0.959 µM (active) | GI50 (ACHN): 1.34 µM (inactive) | GI50 (BT-549): 2.47 µM (inactive) | GI50 (CAKI-1): 1.43 µM (inactive) | GI50 (CCRF-CEM): 3.03 µM (inactive) | GI50 (COLO 205): 5.09 µM (inactive) | GI50 (DU-145): 1.57 µM (inactive) | GI50 (EKVX): 15 µM (inactive) | GI50 (HCC 2998): 8.95 µM (inactive) | GI50 (HCT-116): 4.65 µM (inactive) | GI50 (HCT-15): 5.83 µM | GI50 (HL-60): 1.58 µM (inactive) | GI50 (HOP-62): 2.77 µM (inactive) | GI50 (HOP-92): 3.9 µM (inactive) | GI50 (HT-29): 6.56 µM (inactive) | GI50 (Hs-578T): 14 µM (inactive) | GI50 (IGROV-1): 6.58 µM (inactive) | GI50 (K562): 6.79 µM (inactive) | GI50 (KM12): 4.63 µM (inactive) | GI50 (LOX IMVI): 3.03 µM (inactive) | GI50 (M14): 12.3 µM (inactive) | GI50 (MCF7): 4.76 µM (inactive) | GI50 (MDA-MB-231): 13.8 µM (inactive) | GI50 (MDA-MB-435): 14.2 µM (inactive) | GI50 (MDA-N): 14.2 µM (inactive) | GI50 (MOLT-4): 0.619 µM (active) | GI50 (Malme-3M): 8.99 µM (inactive) | GI50 (NCI-H226): 2.7 µM (inactive) | GI50 (NCI-H23): 4.67 µM (inactive) | GI50 (NCI-H460): 0.355 µM (active) | GI50 (NCI-H522): 5.74 µM (inactive) | GI50 (NCI/ADR-RES): 13.2 µM (inactive) | GI50 (OVCAR-3): 14.4 µM (inactive) | GI50 (OVCAR-4): 6.95 µM (inactive) | GI50 (OVCAR-5): 12.1 µM (inactive) | GI50 (OVCAR-8): 5.08 µM (inactive) | GI50 (PC-3): 8.39 µM (inactive) | GI50 (RPMI-8226): 4.66 µM (inactive) | GI50 (RXF 393): 16 µM (inactive) | GI50 (SF-268): 5.9 µM (inactive) | GI50 (SF-295): 3.43 µM (inactive) | GI50 (SF-539): 7.73 µM (inactive) | GI50 (SK-MEL-28): 15.7 µM (inactive) | GI50 (SK-MEL-2): 18.3 µM (inactive) | GI50 (SK-MEL-5): 2.22 µM (inactive) | GI50 (SK-OV-3): 3.37 µM (inactive) | GI50 (SN12C): 2.85 µM (inactive) | GI50 (SNB-19): 4.88 µM (inactive) | GI50 (SNB-75): 5.92 µM (inactive) | GI50 (SR): 0.394 µM (active) | GI50 (SW-620): 3.42 µM (inactive) | GI50 (T47D): 17.1 µM (inactive) | GI50 (TK-10): 15.8 µM (inactive) | GI50 (U-251): 3.03 µM (inactive) | GI50 (UACC-257): 10.9 µM (inactive) | GI50 (UACC-62): 4.3 µM (inactive) | GI50 (UO-31): 4.47 µM (inactive)

CC(=O)C(C(=O)C(C)(C)C)C(=O)C(C)(C)C
GI50 (786-0): > 100 µM (inactive) | GI50 (A549): > 100 µM (inactive) | GI50 (ACHN): > 100 µM (inactive) | GI50 (BT-549): > 100 µM (inactive) | GI50 (CAKI-1): > 100 µM (inactive) | GI50 (CCRF-CEM): > 100 µM (inactive) | GI50 (COLO 205): > 100 µM (inactive) | GI50 (DU-145): > 100 µM (inactive) | GI50 (HCC 2998): > 100 µM (inactive) | GI50 (HCT-116): > 100 µM (inactive) | GI50 (HCT-15): > 100 µM | GI50 (HL-60): > 100 µM (inactive) | GI50 (HOP-62): > 100 µM (inactive) | GI50 (HOP-92): > 100 µM (inactive) | GI50 (Hs-578T): > 100 µM (inactive) | GI50 (K562): > 100 µM (inactive) | GI50 (KM12): > 100 µM (inactive) | GI50 (LOX IMVI): > 100 µM (inactive) | GI50 (M14): > 100 µM (inactive) | GI50 (MCF7): > 100 µM (inactive) | GI50 (MDA-MB-231): > 100 µM (inactive) | GI50 (MDA-MB-435): > 100 µM (inactive) | GI50 (MDA-N): > 100 µM (inactive) | GI50 (MOLT-4): > 100 µM (inactive) | GI50 (Malme-3M): > 100 µM (inactive) | GI50 (NCI-H460): > 100 µM (inactive) | GI50 (NCI-H522): > 100 µM (inactive) | GI50 (NCI/ADR-RES): > 100 µM (inactive) | GI50 (OVCAR-4): > 100 µM (inactive) | GI50 (OVCAR-5): > 100 µM (inactive) | GI50 (OVCAR-8): > 100 µM (inactive) | GI50 (PC-3): > 100 µM (inactive) | GI50 (RPMI-8226): > 100 µM (inactive) | GI50 (RXF 393): > 100 µM (inactive) | GI50 (SF-268): > 100 µM (inactive) | GI50 (SF-295): > 100 µM (inactive) | GI50 (SF-539): > 100 µM (inactive) | GI50 (SK-MEL-28): > 100 µM (inactive) | GI50 (SK-MEL-2): > 100 µM (inactive) | GI50 (SK-MEL-5): > 100 µM (inactive) | GI50 (SK-OV-3): > 100 µM (inactive) | GI50 (SN12C): > 100 µM (inactive) | GI50 (SNB-19): > 100 µM (inactive) | GI50 (SNB-75): 59.4 µM (inactive) | GI50 (SR): > 100 µM (inactive) | GI50 (SW-620): > 100 µM (inactive) | GI50 (T47D): > 100 µM (inactive) | GI50 (TK-10): > 100 µM (inactive) | GI50 (U-251): > 100 µM (inactive) | GI50 (UACC-257): > 100 µM (inactive) | GI50 (UACC-62): > 100 µM (inactive) | GI50 (UO-31): > 100 µM (inactive)

COc1ccc(-c2cc(-c3cc(OC)c(OC)c(OC)c3)cc(-c3cc4ccccc4oc3=O)n2)cc1
GI50 (786-0): 2.16 µM (inactive) | GI50 (A498): 5.65 µM (inactive) | GI50 (A549): 15 µM (inactive) | GI50 (ACHN): 4.13 µM (inactive) | GI50 (BT-549): 8.79 µM (inactive) | GI50 (CAKI-1): 4.86 µM (inactive) | GI50 (CCRF-CEM): > 100 µM (inactive) | GI50 (COLO 205): > 100 µM (inactive) | GI50 (DU-145): 9.53 µM (inactive) | GI50 (EKVX): 10.9 µM (inactive) | GI50 (HCC 2998): 17.3 µM (inactive) | GI50 (HCT-116): 4.48 µM (inactive) | GI50 (HCT-15): 30.9 µM | GI50 (HL-60): > 100 µM (inactive) | GI50 (HOP-62): 2.25 µM (inactive) | GI50 (HOP-92): 4.07 µM (inactive) | GI50 (HT-29): 9.4 µM (inactive) | GI50 (Hs-578T): 2.38 µM (inactive) | GI50 (IGROV-1): 7.06 µM (inactive) | GI50 (K562): 30.1 µM (inactive) | GI50 (KM12): 12.6 µM (inactive) | GI50 (LOX IMVI): 12.7 µM (inactive) | GI50 (M14): 16.6 µM (inactive) | GI50 (MCF7): 16.7 µM (inactive) | GI50 (MDA-MB-231): 2.3 µM (inactive) | GI50 (MDA-MB-435): 16.7 µM (inactive) | GI50 (MDA-N): 11.6 µM (inactive) | GI50 (MOLT-4): > 100 µM (inactive) | GI50 (Malme-3M): 5.77 µM (inactive) | GI50 (NCI-H226): 3.95 µM (inactive) | GI50 (NCI-H23): 7.87 µM (inactive) | GI50 (NCI-H460): 5.78 µM (inactive) | GI50 (NCI-H522): 6.85 µM (inactive) | GI50 (NCI/ADR-RES): 7.18 µM (inactive) | GI50 (OVCAR-3): 17 µM (inactive) | GI50 (OVCAR-4): 3.94 µM (inactive) | GI50 (OVCAR-8): 4.38 µM (inactive) | GI50 (PC-3): 19.6 µM (inactive) | GI50 (RXF 393): 3.24 µM (inactive) | GI50 (SF-268): 3.45 µM (inactive) | GI50 (SF-295): 4.99 µM (inactive) | GI50 (SF-539): 2.76 µM (inactive) | GI50 (SK-MEL-2): 20 µM (inactive) | GI50 (SK-MEL-5): 5.97 µM (inactive) | GI50 (SK-OV-3): 3.83 µM (inactive) | GI50 (SN12C): 8.93 µM (inactive) | GI50 (SNB-19): 10.2 µM (inactive) | GI50 (SNB-75): 2.51 µM (inactive) | GI50 (SR): 9.79 µM (inactive) | GI50 (SW-620): 25.2 µM (inactive) | GI50 (T47D): 7.19 µM (inactive) | GI50 (TK-10): 8.18 µM (inactive) | GI50 (U-251): 3.54 µM (inactive) | GI50 (UACC-257): 16.7 µM (inactive) | GI50 (UACC-62): 12.5 µM (inactive) | GI50 (UO-31): 8.28 µM (inactive)
